Measurements as given in US9783490B2, “Antimicrobial compounds, their synthesis and applications thereof” (The Secretary of State for Health, priority 2012, dated 2017).
Read-outs that look alike come from different tables or passages of the source.

Key:
[1] = tested on: drug-resistant Klebsiella pneumonia (ATCC700603); experiment: Minimum Inhibitory Concentration, micro-dilution broth; assay type: cell-based; conditions: for Minimum Inhibitory Concentration K. pneumonia: Drug resistant bacteria
Procedure: (§1) Microorganisms and Culture Conditions: Bacterial strains, S. aureus (MTCC 737) and E. coli (MTCC 443) are purchased from MTCC (Chandigarh, India). MRSA (ATCC 33591), Pseudomonas aeruginosa (ATCC 4676), […]-lactamase producing and drug-resistant Klebsiella pneumonia (ATCC700603), Enterococcus faecium (ATCC 19634) and vancomycin resistant Enterococcus faecium (ATCC 51559) are obtained from ATCC (Rockville, Md., USA).
(§2) E. coli is cultured in Luria Bertani broth (10 g of tryptone, 5 g of yeast extract, and 10 g of NaCl in 1000 mL of sterile distilled water (pH −7) while S. aureus, Pseudomonas aeruginosa (ATCC 4676) and MRSA are grown in Yeast-dextrose broth (1 g of beef extract, 2 g of yeast extract, 5 g of peptone and 5 g of NaCl in 1000 mL of sterile distilled water). For all Enterococcus faecium, Brain Heart Infusion broth (BHI) is used. For solid media 5% agar was used along with above mentioned composition. K. pneumonia was grown in nutrient media (3 g of beef extract and 5 g of peptone in 1000 mL of sterile distilled water). The bacterial samples were freeze dried and stored at −80° C. 5 μl of these stocks were added to 3 mL of the nutrient broth and the culture was grown for 6 h at 37° C. prior to the experiments.
(§3) Antibacterial activity is reported as Minimum Inhibitory Concentration (MIC), i.e. the lowest concentration of the antimicrobial agent that will inhibit the growth of a microorganism after overnight incubation. Water-soluble ACK, NCK and BCK series of compounds are assayed in a modified micro-dilution broth format. Stock solutions are made by serially diluting the compounds using autoclaved Millipore water. Bacteria, to be tested are grown for about 6 hrs in the suitable media containing ˜10^9 cfu/mL (determined through dilution plate technique by spread plate method), which is then diluted to 10^5 cfu/mL using nutrient media. 50 μL of serially diluted compound is added to a 96 well plate containing 150 μL bacterial solutions. Two controls are made; one containing 150 μL of media and 50 μL of compound and the other containing 200 μL of bacterial solution. […] MIC value is determined by taking the average of triplicate O.D. values for each concentration and plotting it against concentration using Origin Pro 8.0 software. The data is then subjected to sigmoidal fitting. From the curve, MIC value is determined, as the point in the curve where the O.D. is similar to that of control having no bacteria. The MIC values and errors of independent experiments are reported as average and standard deviation of triplicates.

[2] = tested on: Pseudomonas aeruginosa (ATCC 4676); experiment: as above; assay type: cell-based; conditions: for Minimum Inhibitory Concentration P. aeruginosa: Drug sensitive bacteria
Procedure: as §1, §2, §3

[3] = tested on: vancomycin resistant Enterococcus faecium (ATCC 51559); experiment: as above; assay type: cell-based; conditions: for Minimum Inhibitory Concentration VRE: Drug resistant bacteria
Procedure: as §1, §2, §3

[4] = tested on: Enterococcus faecium (ATCC 19634); experiment: as above; assay type: cell-based; conditions: for Minimum Inhibitory Concentration E. faecium: Drug sensitive bacteria
Procedure: as §1, §2, §3

MRSA (ATCC 33591) = experiment: as above; assay type: cell-based, Methicillin resistant S. aureus; conditions: for Minimum Inhibitory Concentration MRSA: Drug resistant bacteria
Procedure: as §1, §2, §3

E. coli (MTCC 443) = experiment: as above; assay type: cell-based, Escherichia coli; conditions: for Minimum Inhibitory Concentration E. coli: Drug sensitive bacteria
Procedure: as §1, §2, §3

human RBCs = experiment: Haemolytic activity (HC50); assay type: cell-based
Procedure: Erythrocytes are isolated from freshly drawn, heparinized human blood and re-suspended to 5 vol % in PBS (pH 7.4). In a 96-well microtiter plate, 150 μl of erythrocyte suspension is added to 50 μl of serially diluted compound. Two controls are made, one without compound and other with 50 μl of 1 vol % solution of Triton X-100. The plate is incubated for about 1 hr at a temperature of about 37° C. The plate is then centrifuged at 3,500 rpm for about 5 min, 100 μl of the supernatant from each well is transferred to a fresh microtiter plate, and absorbance at 540 nm is measured. Percentage of hemolysis is determined as (A−A0)/(Atotal−A0)×100, where A is the absorbance of the test well, A0 the absorbance of the negative controls (without compound), and A total the absorbance of 100% hemolysis wells (with Triton X-100), when absorbance is read at 540 nm.
Toxicity studies of the compounds are carried out on freshly drawn human RBCs. Toxicity of the antimicrobial compounds of the present disclosure is defined by their HC50 values illustrated in Table 3, i.e. the concentration of compound at which 50% of the blood cells are lysed. Haemolytic studies conducted herein illustrates that the antimicrobial compounds provided by the instant disclosure are selective towards drug sensitive bacteria and drug resistant bacteria over human RBCs, thus establishing the non-toxicity of the present compounds.

S. aureus (MTCC 737) = experiment: Minimum Inhibitory Concentration, micro-dilution broth; assay type: cell-based, Staphylococcus aureus; conditions: for Minimum Inhibitory Concentration S. aureus: Drug sensitive bacteria
Procedure: as §1, §2, §3

[5] = concentration at which 50% of the blood cells are lysed, human RBCs

Question: What does the source list for `CCN(Cc1c2ccccc2c(Cl)c2ccccc12)C(=O)C(N)CCCCN.O=C(O)C(F)(F)F` (centres unmarked) [ACK-2, Lys-N-ethyl-10-Aminomethyl-9-chloroanthracene trifluoroacetate]?
Answer: Minimum Inhibitory Concentration K. pneumonia [1]: 31 µg/mL; MIC value against P. aeruginosa [2]: about 4 μg/ml; Minimum Inhibitory Concentration P. aeruginosa [2]: 4 µg/mL; Minimum Inhibitory Concentration VRE [3]: 7.2 µg/mL; Minimum Inhibitory Concentration E. faecium [4]: 13.6 µg/mL; Minimum Inhibitory Concentration MRSA (MRSA (ATCC 33591)): 21 µg/mL; Minimum Inhibitory Concentration E. coli (E. coli (MTCC 443)): 25 µg/mL; HC50 (human RBCs; [5]): 118 µg/mL; Minimum Inhibitory Concentration S. aureus (S. aureus (MTCC 737)): 11 µg/mL

Question: Which results are given for `CCCCN(Cc1c2ccccc2c(Cl)c2ccccc12)C(=O)C(N)CCCCN.O=C(O)C(F)(F)F` (centres unmarked) [ACK-4, Lys-N-butyl-10-Aminomethyl-9-chloroanthracene trifluoroacetate]?
Answer: MIC value against K. pneumonia [1]: about 17 μg/ml; Minimum Inhibitory Concentration K. pneumonia [1]: 17 µg/mL; MIC value against P. aeruginosa [2]: ~1.9 µg/mL; Minimum Inhibitory Concentration P. aeruginosa [2]: 1.9 µg/mL; MIC value against vancomycin-resistant E. faecium [3]: about 5.3 μg/ml; Minimum Inhibitory Concentration VRE [3]: 5.3 µg/mL; MIC value against E. faecium [4]: about 4.5 μg/ml; Minimum Inhibitory Concentration E. faecium [4]: 4.5 µg/mL; MIC value against methicillin-resistant S. aureus (MRSA (ATCC 33591)): about 6.3 μg/ml; Minimum Inhibitory Concentration MRSA (MRSA (ATCC 33591)): 6.3 µg/mL; MIC value against E. coli (E. coli (MTCC 443)): about 4.8 μg/ml; Minimum Inhibitory Concentration E. coli (E. coli (MTCC 443)): 4.8 µg/mL; HC50 (human RBCs; [5]): 91 µg/mL; MIC value against S. aureus (S. aureus (MTCC 737)): about 5.3 μg/ml; Minimum Inhibitory Concentration S. aureus (S. aureus (MTCC 737)): 5.3 µg/mL

Question: For `CCCCN(Cc1ccccc1)C(=O)[C@@H](N)CCCCN.O=C(O)C(F)(F)F` [BCK-4, Lys-N-butyl-1-Aminomethylbenzene trifluoroacetate], which “Minimum Inhibitory Concentration K. pneumonia” value [1] is on record?
Answer: Its value is greater than 100 µg/mL.

Question: What about the “Minimum Inhibitory Concentration P. aeruginosa” value [2] of the same compound?
Answer: The value was greater than 100 µg/mL.

Question: What about the “Minimum Inhibitory Concentration E. faecium” value [4] of the same compound?
Answer: The value was greater than 100 µg/mL.

Question: What about the “Minimum Inhibitory Concentration MRSA” value (MRSA (ATCC 33591)) of the same compound?
Answer: Its value is greater than 100 µg/mL.

Question: And the “Minimum Inhibitory Concentration E. coli” value (E. coli (MTCC 443))?
Answer: The value was greater than 100 µg/mL.

Question: And the HC50 (human RBCs)?
Answer: Its HC50 is greater than 1000 µg/mL.

Question: What about the “Minimum Inhibitory Concentration S. aureus” value (S. aureus (MTCC 737)) of the same compound?
Answer: The value was greater than 100 µg/mL.

Question: With `CCCCCCN(Cc1ccccc1)C(=O)[C@@H](N)CCCCN.O=C(O)C(F)(F)F` [BCK-6, Lys-N-hexyl-1-Aminomethylbenzene trifluoroacetate] as the compound, how does the “Minimum Inhibitory Concentration K. pneumonia” value [1] read?
Answer: The value was greater than 100 µg/mL.

Question: And the “Minimum Inhibitory Concentration P. aeruginosa” value [2]?
Answer: The value was greater than 100 µg/mL.

Question: And the “Minimum Inhibitory Concentration E. faecium” value [4]?
Answer: Its value is greater than 100 µg/mL.

Question: And the “Minimum Inhibitory Concentration MRSA” value (MRSA (ATCC 33591))?
Answer: The value was greater than 100 µg/mL.

Question: What about the “Minimum Inhibitory Concentration E. coli” value (E. coli (MTCC 443)) of the same compound?
Answer: Its value is greater than 100 µg/mL.

Question: What about the HC50 (human RBCs) of the same compound?
Answer: The HC50 was greater than 1000 µg/mL.

Question: What about the “Minimum Inhibitory Concentration S. aureus” value (S. aureus (MTCC 737)) of the same compound?
Answer: The value was greater than 100 µg/mL.

Question: For `CCCCN(Cc1ccc(-c2ccccc2)cc1)C(=O)[C@@H](N)CCCCN` [Compound 6a, Lys-N-Butyl-1-Aminomethylbiphenyl], which “Minimum Inhibitory Concentration S. aureus” value (S. aureus (MTCC 737)) is on record?
Answer: The value was 60 µg/mL.

Question: For `CCCCCCN(Cc1ccc(-c2ccccc2)cc1)C(=O)[C@@H](N)CCCCN` [Compound 6b, Lys-N-hexyl-1-Aminomethylbiphenyl], which “Minimum Inhibitory Concentration S. aureus” value (S. aureus (MTCC 737)) is on record?
Answer: Its value is 7.5 µg/mL.

Question: With `CCCCCCCCN(Cc1ccc(-c2ccccc2)cc1)C(=O)C(N)CCCCN` (centres unmarked) [Compound 6c, Lys-N-octyl-1-Aminomethylbiphenyl] as the compound, how does the “Minimum Inhibitory Concentration S. aureus” value (S. aureus (MTCC 737)) read?
Answer: The value was 1.3 µg/mL.

Question: With `CCCCCCCCN(Cc1c2ccccc2cc2ccccc12)C(=O)[C@@H](N)CCCCN.O=C(O)C(F)(F)F` [Compound 8c, Lys-N-octyl-9-Aminomethylanthracene trifluoroacetate] as the compound, how does the “Minimum Inhibitory Concentration MRSA” value (MRSA (ATCC 33591)) read?
Answer: The value was 3.6 µg/mL.

Question: And the HC50 (human RBCs)?
Answer: The HC50 was 42 µg/mL.

Question: And the “Minimum Inhibitory Concentration S. aureus” value (S. aureus (MTCC 737))?
Answer: Its value is 2.2 µg/mL.
